Entries after “also recorded” stand apart in the source; their conditions may differ. Read-outs that look alike come from different tables or passages of the source.
Key:
[1] = design: method as in PMID 33733534; conditions: cited from earlier work; for maximum in vivo concentration in dog plasma: oral treatment at the minimum recommended dose; for maximum plasma concentration: dose of 25 mg/kg body weight
[2] = target: Hsa-GABA α5β2γ2 (Homo sapiens, UniProt P18507+P31644+P47870); experiment: Two-electrode voltage-clamp inhibition of GABA current, receptor expressed in Xenopus oocytes
Source text: (§1) Complementary DNA (cDNA) encoding for the human GABAA proteins α1 (NM_001127645.2), α2 (NM_001377146.1), α3 (KJ620007.1), α4 (NM_000809.4), α5 (NM_000810.4), α6 (NM_000811.3), β2 (XM_054352312.1), β3 (M82919.1), γ2 (NM_000816.3) and δ (NM_000815.5) were ordered from Genewiz (www.genewiz.com; Leipzig, Germany); for each gene, GenBank accession numbers are provided in parentheses. When necessary, silent mutations were introduced to break NheI or XhoI internal restriction sites. The corresponding open reading frames (ORF) were cloned into the pT7-TS transcription vector (introducing X. laevis β-globin untranslated cDNA to the 5’ and 3’ ends of the gene), following a procedure described in detail in a previous publication. The same process was used to obtain cDNA encoding canine GABAA proteins α4 (XM_025435560.1), α6 (XM_022417729.1) and δ (XM_005620414.2). Gene α2 (XM_025435664.1), α3 (XM_549343.5), α5 (XM_545805.6) and β3 (XM_025437408.1) were obtained by PCR; GenBank reference accession numbers are provided in parentheses. RNA extraction, cDNA synthesis and PCR amplification were performed as described previously. Total RNA was extracted from a piece of dog brain (Beagle breed; Canis lupus familiaris) from which 1 µg of total RNA (DNase-treated) was reverse-transcribed to cDNA using a (dT)30 primer and SuperScript III Reverse Transcriptase (Invitrogen, Thermo Fisher Scientific, Waltham, MA, USA). Gene-specific primers (Additional file 1: Table S1) were designed using Primer 3 software (http://frodo.wi.mit.edu/). […] The cycling conditions were: 98 °C for 30 s; then 38 cycles of 98 °C for 10 s, 58 °C for 30 s and 72 °C for 90 s; followed by 72 °C for 5 min. The dog subunits α1 (XM_546261.5), β2 (XM_014113040.1) and γ2 (XM_546259.5) had been previously amplified and described in a study by Rufener et al..
(§2) Defoliculated X. laevis oocytes ordered from Ecocyte Bioscience (Dortmund, Germany) were microinjected with 15–25 nl of cRNA solution (5–50 ng/μl) per oocyte using an automated injector (Roboinject; Multi Channel Systems MCS GmbH, Reutlingen, Germany) and then incubated at 18 °C. All recordings were made 1–5 days post-cRNA injection and were performed at 18 ± 4 °C. Cells were superfused with OR2 medium (NaCl 88 mM, KCl 2.5 mM, HEPES 5 mM, CaCl2•2H2O 1.8 mM, MgCl2•7H2O 1.0 mM, pH 7.4). To ensure that γ2 subunits were integrated into the heteropentamers, we injected fivefold more γ2 than the other subunit cRNAs. Diazepam is a positive allosteric modulator of GABAR only if γ2 subunits are present. Therefore, we used this method to confirm the presence of human and dog GABAA receptor containing the γ2 subunit.
(§3) Voltage-clamp measurements were performed as described by Rufener et al.. Oocytes were impaled with two electrodes filled with 3 M KCl, and their membrane potentials were maintained at − 80 mV throughout the experiment. […] Recordings were performed using an automated process equipped with standard two-electrode voltage-clamp configuration (HiClamp system; Multi Channel Systems MCS GmbH). Data were filtered at 10 Hz, captured at 100 Hz and analyzed using proprietary data acquisition and analysis software in MATLAB (Mathworks Inc., Natick, MA, USA). Additional analyses were performed using Excel (Microsoft, Redmond, WA, USA). […] Graphing the maximum inward currents against the log of agonist concentration produces typical concentration-activation and concentration-inhibition curves, which can be accurately described using individual Hill equations.

[3] = target: Hsa-GABA α2β2γ2 (Homo sapiens, UniProt P18507+P47869+P47870); experiment: as above
Source text: as §1, §2, §3

[4] = target: Hsa-GABA α6β2γ2 (Homo sapiens, UniProt P18507+P47870+Q16445); experiment: as above
Source text: as §1, §2, §3

[5] = target: Hsa-GABA α2β3γ2 (Homo sapiens, UniProt P18507+P28472+P47869); experiment: as above
Source text: as §1, §2, §3

[6] = target: Hsa-GABA α1β2γ2 (Homo sapiens, UniProt P14867+P18507+P47870); experiment: as above
Source text: as §1, §2, §3

[7] = target: Hsa-GABA α3β2γ2 (Homo sapiens, UniProt P18507+P34903+P47870); experiment: as above
Source text: as §1, §2, §3

[8] = target: Clu-GABA α2β2γ2 (Canis lupus familiaris, UniProt A0A8I3RPG5+A0A8I3S1N5+E2RSQ0); experiment: as above; format: cell-based
Source text: as §1, §2, §3

[9] = target: Clu-GABA α5β2γ2 (Canis lupus familiaris, UniProt A0A8I3PC22+A0A8I3RPG5+E2RSQ0); experiment: as above; format: cell-based
Source text: as §1, §2, §3

[10] = target: Clu-GABA α2β3γ2 (Canis lupus familiaris, UniProt A0A8I3NUI4+A0A8I3S1N5+E2RSQ0); experiment: as above; format: cell-based
Source text: as §1, §2, §3

[11] = target: Clu-GABA α3β2γ2 (Canis lupus familiaris, UniProt A0A8I3PRS3+A0A8I3RPG5+E2RSQ0); experiment: as above; format: cell-based
Source text: as §1, §2, §3

[12] = target: Clu-GABA α1β2γ2 (Canis lupus familiaris, UniProt A0A2H4NNI8+A0A8I3RPG5+E2RSQ0); experiment: as above; format: cell-based
Source text: as §1, §2, §3

[13] = tested on: human and canine GABARs; experiment: Voltage-clamp inhibition, summary over human and canine receptors; format: cell-based; conditions: for inhibitory effect on human and canine GABARs (in words): tested up to 30 μM
Method: as §2
as §3, with “equations. The concentration-activation curves were fitted using the following equation: Y=100/1+10^H(logEC50-X) where Y is the normalized response, logEC50 is the logarithm of the concentration of agonist eliciting half-maximal current amplitude, X is the log of the dose or concentration, and H is the slope factor or Hill slope. The same equation was used for the concentration-inhibition curves but logEC50 was replaced by logIC50 (half-maximal inhibitory concentration).” for “equations.”
(§4) The agonist and the drug were then washed off for 15 s and the oocyte was exposed again to the same drug concentration for 25 s before increasing to the next concentration.

[14] = tested on: Hsa-GABARs; experiment: Voltage-clamp inhibition, summary over the six human subunit combinations; conditions: for average GABA current inhibition: at 30 μM, average over Hsa-GABARs; for inhibition of human GABARs (in words): tested up to 30 μM
Method: as §2
as §3, with “equations. The concentration-activation curves were fitted using the following equation: Y=100/1+10^H(logEC50-X) where Y is the normalized response, logEC50 is the logarithm of the concentration of agonist eliciting half-maximal current amplitude, X is the log of the dose or concentration, and H is the slope factor or Hill slope. The same equation was used for the concentration-inhibition curves but logEC50 was replaced by logIC50 (half-maximal inhibitory concentration).” for “equations.”
as §4

[15] = tested on: Clu-GABARs; experiment: Voltage-clamp inhibition, summary over the five canine subunit combinations; format: cell-based, Canis lupus familiaris; conditions: at 30 μM
Method: as §2
as §3, with “equations. The concentration-activation curves were fitted using the following equation: Y=100/1+10^H(logEC50-X) where Y is the normalized response, logEC50 is the logarithm of the concentration of agonist eliciting half-maximal current amplitude, X is the log of the dose or concentration, and H is the slope factor or Hill slope. The same equation was used for the concentration-inhibition curves but logEC50 was replaced by logIC50 (half-maximal inhibitory concentration).” for “equations.”
as §4

[16] = design: method as in PMID 40269978; conditions: MDR1 mutant dog breeds; cited from earlier work
[17] = tested on: human and dog GABAA receptor containing the γ2 subunit; experiment: Positive modulation by diazepam to confirm γ2 incorporation; format: cell-based; conditions: all receptor subtypes expressed; data not shown
Method: as §2

[18] = design: method as in earlier work; conditions: mdr1 mutant mouse model; cited from earlier work
[19] = Xenopus oocytes, −80 mV, 60 s pre-exposure, co-applied with GABA 0.3 µM (near EC10)
[20] = Xenopus oocytes, −80 mV, 60 s pre-exposure, co-applied with GABA 3 µM (near EC10)
[21] = Xenopus oocytes, −80 mV, 60 s pre-exposure, co-applied with GABA 1 µM (near EC10)
[22] = Xenopus oocytes, −80 mV, 60 s pre-exposure, co-applied with GABA 5 µM (near EC10)
[23] = Xenopus oocytes, −80 mV, 60 s pre-exposure, co-applied with GABA 0.5 µM (near EC10)

Hsa-GABA α5β2γ2, sequence (P31644 32-462): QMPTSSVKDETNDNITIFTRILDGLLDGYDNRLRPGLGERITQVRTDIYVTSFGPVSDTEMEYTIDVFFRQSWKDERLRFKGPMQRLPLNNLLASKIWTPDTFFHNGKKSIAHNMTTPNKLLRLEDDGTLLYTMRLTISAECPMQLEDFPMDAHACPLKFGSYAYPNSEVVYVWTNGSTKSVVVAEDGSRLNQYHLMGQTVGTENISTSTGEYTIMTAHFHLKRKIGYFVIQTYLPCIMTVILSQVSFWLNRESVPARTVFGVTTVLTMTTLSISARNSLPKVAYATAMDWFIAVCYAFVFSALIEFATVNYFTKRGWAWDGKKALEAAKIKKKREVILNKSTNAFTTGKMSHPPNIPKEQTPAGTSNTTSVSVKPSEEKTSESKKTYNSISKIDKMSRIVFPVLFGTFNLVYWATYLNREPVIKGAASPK
Hsa-GABA α5β2γ2, sequence (P47870 26-474 isoform P47870-1 limits assumed): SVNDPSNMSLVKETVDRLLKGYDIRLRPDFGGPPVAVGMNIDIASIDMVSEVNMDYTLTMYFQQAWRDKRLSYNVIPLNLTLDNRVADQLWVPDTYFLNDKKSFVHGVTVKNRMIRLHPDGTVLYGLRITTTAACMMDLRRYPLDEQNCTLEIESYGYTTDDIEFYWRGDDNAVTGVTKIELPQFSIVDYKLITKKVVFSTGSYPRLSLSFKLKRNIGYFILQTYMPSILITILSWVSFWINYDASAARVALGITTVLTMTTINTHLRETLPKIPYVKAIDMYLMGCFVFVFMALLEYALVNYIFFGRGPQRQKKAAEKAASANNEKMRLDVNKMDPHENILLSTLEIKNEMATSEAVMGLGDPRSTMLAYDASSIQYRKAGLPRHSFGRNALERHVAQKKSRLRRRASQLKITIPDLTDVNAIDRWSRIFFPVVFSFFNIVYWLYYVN
Hsa-GABA α5β2γ2, sequence (P18507 40-467 isoform P18507-1 limits assumed): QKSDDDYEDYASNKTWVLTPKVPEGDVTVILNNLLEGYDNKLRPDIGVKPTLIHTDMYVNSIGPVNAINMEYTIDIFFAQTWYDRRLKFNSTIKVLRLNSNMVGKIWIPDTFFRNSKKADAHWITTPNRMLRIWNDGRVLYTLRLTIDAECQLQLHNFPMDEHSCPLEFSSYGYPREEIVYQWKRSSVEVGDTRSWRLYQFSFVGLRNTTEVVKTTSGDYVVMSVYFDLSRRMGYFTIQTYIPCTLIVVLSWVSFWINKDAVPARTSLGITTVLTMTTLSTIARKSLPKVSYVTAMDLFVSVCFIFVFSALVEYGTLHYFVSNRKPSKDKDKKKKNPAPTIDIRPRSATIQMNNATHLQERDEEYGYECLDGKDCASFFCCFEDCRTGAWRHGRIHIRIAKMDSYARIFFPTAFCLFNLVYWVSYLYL
Clu-GABA α1β2γ2, sequence (A0A2H4NNI8 28-456): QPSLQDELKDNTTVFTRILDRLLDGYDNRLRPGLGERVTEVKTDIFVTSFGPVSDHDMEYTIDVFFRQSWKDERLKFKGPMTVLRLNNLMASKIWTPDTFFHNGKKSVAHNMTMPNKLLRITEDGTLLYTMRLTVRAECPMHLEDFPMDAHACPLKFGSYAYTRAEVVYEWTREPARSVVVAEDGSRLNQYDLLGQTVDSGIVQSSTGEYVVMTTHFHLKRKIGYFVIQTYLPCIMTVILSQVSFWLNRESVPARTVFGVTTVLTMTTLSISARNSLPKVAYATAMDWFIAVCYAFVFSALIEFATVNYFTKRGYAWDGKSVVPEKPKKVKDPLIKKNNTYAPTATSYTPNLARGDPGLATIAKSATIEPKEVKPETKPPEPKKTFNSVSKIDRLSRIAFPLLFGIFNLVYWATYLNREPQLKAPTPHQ
Clu-GABA α1β2γ2, sequence (A0A8I3RPG5 25-473): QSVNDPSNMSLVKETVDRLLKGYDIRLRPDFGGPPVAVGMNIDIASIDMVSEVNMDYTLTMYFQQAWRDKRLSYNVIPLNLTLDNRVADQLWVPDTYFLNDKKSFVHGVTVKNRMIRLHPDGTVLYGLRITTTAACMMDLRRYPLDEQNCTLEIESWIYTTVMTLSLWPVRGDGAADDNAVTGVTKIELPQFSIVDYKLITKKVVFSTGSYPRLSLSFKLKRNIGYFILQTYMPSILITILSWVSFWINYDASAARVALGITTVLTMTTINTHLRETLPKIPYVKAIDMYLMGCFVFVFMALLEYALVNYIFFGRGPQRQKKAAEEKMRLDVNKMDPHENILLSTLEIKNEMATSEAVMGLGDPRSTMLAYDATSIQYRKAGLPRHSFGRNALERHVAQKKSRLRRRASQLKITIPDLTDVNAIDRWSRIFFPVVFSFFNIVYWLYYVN
Clu-GABA α1β2γ2, sequence (E2RSQ0 40-467): as the sequence (P18507 40-467 isoform P18507-1 limits assumed) above
Hsa-GABA α1β2γ2, sequence (P14867 28-456): as the sequence (A0A2H4NNI8 28-456) above
Hsa-GABA α1β2γ2, sequence (P47870 26-474 isoform P47870-1 limits assumed): as the sequence (P47870 26-474 isoform P47870-1 limits assumed) above
Hsa-GABA α1β2γ2, sequence (P18507 40-467 isoform P18507-1 limits assumed): as the sequence (P18507 40-467 isoform P18507-1 limits assumed) above

Row | Compound | maximum in vivo concentration in dog plasma [1] | IC50 [2, 19] | IC50 [3, 20] | IC50 [4, 19] | IC50 [5, 21] | IC50 [6, 21] | IC50 [7, 21] | IC50 [8, 22] | IC50 [9, 21] | IC50 [10, 21] | IC50 [11, 23] | IC50 [12, 21] | inhibitory effect on human and canine GABARs (in words) [13] | average GABA current inhibition [14] | inhibition of human GABARs (in words) [14] | average GABA current inhibition [15] | further results
1 | CS(=O)(=O)CC(=O)N1CC2(C1)OCc1cc(C3=NO[C@@](c4cc(Cl)c(F)c(Cl)c4)(C(F)(F)F)C3)ccc12 [Sarolaner, sarolaner] | 1.9 µM | 8.4 µM | 19.5 µM | 16.1 µM | > 30 µM | 21.9 µM | 13.4 µM | 10.2 µM | 10.2 µM | 13.4 µM | 13.1 µM | 21.8 µM | partial to high inhibition | 53% | partial inhibition | 57% | Cmax ([1]; dose of 2 mg/kg body weight, read-out: Cmax in dog plasma): 1.9 µM
2 | O=C(CNC(=O)c1ccc(C2=NOC(c3cc(Cl)cc(C(F)(F)F)c3)(C(F)(F)F)C2)c2ccccc12)NCC(F)(F)F (centres unmarked) [Afoxolaner, afoxolaner] |  | 6.3 µM | 9.9 µM | 11.7 µM | 20.5 µM |  | 15 µM | 20.6 µM | 7.4 µM | 15.7 µM | 17.9 µM | 3 µM | partial to high inhibition | 59% |  | 57% | Cmax ([1]; oral dosing at 2.5 mg/kg, read-out: Cmax (peak concentration in the bloodstream)): 4.7 µM
3 | Cc1cc(C2=NO[C@@](c3cc(Cl)c(Cl)c(Cl)c3)(C(F)(F)F)C2)sc1C(=O)NCC(=O)NCC(F)(F)F [Lotilaner, lotilaner] | 6.7 µM |  |  |  |  |  |  |  |  |  |  |  | inactive | 13% |  | 20% | IC50 [2]: > 30 µM; IC50 [3]: > 30 µM; IC50 [4]: > 30 µM; IC50 [5]: > 30 µM; IC50 [6]: > 30 µM; IC50 [7]: > 30 µM; IC50 [8]: > 30 µM; IC50 [9]: > 30 µM; IC50 [10]: > 30 µM; IC50 [11]: > 30 µM; IC50 [12]: > 30 µM; IC50 ([13]; range or bound over all eleven subunit combinations): > 30 µM; inhibitory effect on human and canine GABARs (in words) ([13]; listed as lotilaner): little or no inhibitory effect; also recorded: did not show any significant inhibition; neurological symptoms (in words) [16]: did not reveal neurological symptoms
4 | CN1C(=O)CN=C(c2ccccc2)c2cc(Cl)ccc21 [diazepam] |  |  |  |  |  |  |  |  |  |  |  |  |  |  |  |  | positive modulation [17]: > 200%
5 | Cc1cc(C2=NOC(c3cc(Cl)cc(Cl)c3)(C(F)(F)F)C2)ccc1C(=O)NCC(=O)NCC(F)(F)F (centres unmarked) [Fluralaner, fluralaner] |  | 2.7 µM | 1.9 µM | 2.2 µM | 5.5 µM | 5.7 µM | 4.9 µM | 2.2 µM | 2.3 µM | 13 µM | 9.4 µM | 4.3 µM | partial to high inhibition | 82% | high inhibition | 76% | maximum plasma concentration ([1]; converted from ng/ml): 6.1 µM; maximum plasma concentration [1]: 3400 ng/mL; current inhibition ([2]; at 30 μM): > 90%; current inhibition ([3]; at 30 μM): > 90%; current inhibition ([4]; at 30 μM): > 90%; brain penetration (in words) [18]: brain penetration of fluralaner was observed
